Measured values from PubChem BioAssay AID1552 (Sanford-Burnham Center for Chemical Genomics, 2009).
Calls of active or inactive are those of the source. The rule behind the calls is not given here.

Molecular target: Ubiquitin-conjugating enzyme E2 N (Homo sapiens) (UniProt P61088)
Test: UBE2N binders by NMR, biophysical, purified protein (AID 1552)
Conditions: NMR binding to purified UBE2N

Sequence of Ubiquitin-conjugating enzyme E2 N (Homo sapiens) (P61088 whole entry, looked up): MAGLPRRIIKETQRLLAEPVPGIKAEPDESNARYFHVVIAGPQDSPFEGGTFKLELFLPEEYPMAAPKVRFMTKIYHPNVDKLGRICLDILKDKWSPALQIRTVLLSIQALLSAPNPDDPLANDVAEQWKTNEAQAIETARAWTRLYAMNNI

Compound	Kd
CC(C)n1c(-c2ccncc2)n[nH]c1=S	> 4 mM (inactive)
O=C1CSC(=Nc2cccc(C(=O)O)c2)N1	> 4 mM (inactive)
Nc1ccc2c(c1)S(=O)(=O)C=C2	> 4 mM (inactive)
CC1(C)Cc2cccc(C(=O)O)c2O1	> 4 mM (inactive)
CCOC(=O)c1cc(C)n(-n2cnnc2)c1C	> 4 mM (inactive)
O=C(O)c1cc(F)cc2c1OCOC2	> 4 mM (inactive)
CN1CCN(CC(=O)NC2CCCCC2)CC1	> 4 mM (inactive)
COc1ccc(-c2c(C)n([O-])c(C)c(C)[n+]2=O)cc1	> 4 mM (inactive)
CC1CCc2cc(F)ccc2N1C(=O)c1ccc(=O)[nH]n1 (configuration not stated)	> 4 mM (inactive)
CC(=O)c1c(O)n(C)c(=S)n(C)c1=O	> 4 mM (inactive)
CC1(C)C(=O)C=C[C@@]2(C)C1C[C@@H](O)[C@]1(C)C2CC[C@@]2(C)[C@H](c3ccoc3)OC(=O)[C@H]3O[C@]321 (some centres not stated)	> 4 mM (inactive)
Cc1c(C)[n+](=O)c(-c2cccs2)c(C)n1[O-]	> 4 mM (inactive)
CC(=O)O[C@@H]1CC2C(C)(C)C(=O)[C@@H]3O[C@@H]3[C@]2(C)C2CC[C@]3(C)C(=CC(=O)O[C@H]3c3ccoc3)[C@@]21C (some centres not stated)	> 4 mM (inactive)
Cc1cc(C)n(S(=O)(=O)c2ccc(C)c(C)c2C)n1	> 4 mM (inactive)
c1ccc(C[N+]23CCN(CC2)c2ccccc23)cc1	> 4 mM (inactive)
O=C1C2C3CCC(O3)C2C(=O)N1c1ccccc1 (configuration not stated)	> 4 mM (inactive)
CC(=O)Nc1ccc(NC(=O)c2ccncc2)cc1	> 4 mM (inactive)
CNC(Cc1c[nH]c2ccccc12)C(=O)O (configuration not stated)	> 4 mM (inactive)
Cn1nc(-c2ccccc2)cc1N	> 4 mM (inactive)
CSc1nnnn1-c1cccc(O)c1	> 4 mM (inactive)
Nc1ncnc(Nc2ccccc2C(F)(F)F)n1	> 4 mM (inactive)

Compound	Kd
COc1c(-c2ccccc2)oc2c(OC)cccc2c1=O	> 4 mM (inactive)
O=C1CN(C(=O)c2ccccc2)c2ccccc2N1	> 4 mM (inactive)
COC(=O)[C@@H]1OC(=O)C2OC23[C@@]1(C)CCC1[C@]2(C)C(C[C@H](O)[C@]13C)C(C)(C)[C@H](OC(C)=O)C[C@@H]2OC(C)=O (some centres not stated)	> 4 mM (inactive)
CC(=O)Nc1nnc(-c2ccncc2)s1	> 4 mM (inactive)
Cc1cc2c(N)cccc2nn1	> 4 mM (inactive)
CCOC(=O)CN1C(=O)c2ccccc2C1=O	> 4 mM (inactive)
Cc1nc(NC2=NCCC(=O)N2)nc2ccccc12	> 4 mM (inactive)
Cc1nc2sc3c(c2c(=N)n1N)CC(C)(C)OC3	> 4 mM (inactive)
Cc1oc(-c2ccccc2)cc1CO	> 4 mM (inactive)
CN(C)C(=O)c1ccccc1-c1ccccc1	> 4 mM (inactive)
CC1=CC(=O)CC(C)(C)C1(O)/C=C/C(C)=C\C(=O)O (configuration not stated)	> 4 mM (inactive)
Cc1nc2ccccc2c(=O)[nH]1	> 4 mM (inactive)
CN(C)C(=O)CCNS(=O)(=O)c1ccccc1	> 4 mM (inactive)
O=C(O)c1ccc2c(c1)CCO2	> 4 mM (inactive)
S=c1[nH]nc(-c2cccnc2)n1C1CCCCC1	> 4 mM (inactive)
Cc1cccc(NC(=O)Nc2cc(C)on2)c1	> 4 mM (inactive)
OCn1nnn(-c2ccccc2)c1=S	> 4 mM (inactive)
CC1(C)NCCN2C(=O)CSC21 (configuration not stated)	> 4 mM (inactive)
COC(=O)C[C@@H]1C2(C)C(=O)[C@@H](CC3=C4CC(O)O[C@@H](c5ccoc5)[C@]4(C)CCC32)[C@H](O)C1(C)C (some centres not stated)	> 4 mM (inactive)
CC(=O)O[C@H]1CC[C@@]2(C)C(CC[C@]3(C)C2CC=C2C4CC(C)(C)CC[C@]4(C)CC[C@]23C)C1(C)C (some centres not stated)	> 4 mM (inactive)
CC1(C)Oc2ccc3ccc(=O)oc3c2CC1O (configuration not stated)	> 4 mM (inactive)

Compound	Kd
O=C(O)CC(O)c1nc2ccccc2[nH]1 (configuration not stated)	> 4 mM (inactive)
O=C(O)CCc1nc2ccccc2[nH]c1=O	> 4 mM (inactive)
c1ccc(C2NCCc3[nH]cnc32)cc1 (configuration not stated)	> 4 mM (inactive)
CCOC(=O)c1c(C)n([O-])c2ccccc2[n+]1=O	> 4 mM (inactive)
O=C1CCCc2c1nc(-c1ccccc1)n2O	> 4 mM (inactive)
CS(=O)(=O)N1CCN(C(=O)c2ccccc2)CC1	> 4 mM (inactive)
Cn1c(O)c(/C=C2\C=CC=N2)c(=O)[nH]c1=O	> 4 mM (inactive)
COc1cc2nc(N3CCNCC3)nc(N)c2cc1OC	> 4 mM (inactive)
O=c1c(Cl)c(NCCO)ncn1-c1ccccc1	> 4 mM (inactive)
O=C(NC12CC3CC(CC(C3)C1)C2)c1cnccn1	> 4 mM (inactive)
CC(=O)NN1C(=O)/C(=C\c2ccc(O)cc2)SC1=S	> 4 mM (inactive)
CS(=O)(=O)Cc1ccccc1	> 4 mM (inactive)
CN(C)c1n[nH]c(=O)[nH]c1=O	> 4 mM (inactive)
Cc1n[nH]c(=O)nc1N1CCN(c2ccccc2)CC1	> 4 mM (inactive)
COCC(=O)/C=C1\Sc2ccccc2N1C	> 4 mM (inactive)
CCCCN1C(=O)C2CC/C(=N/O)CC2C1=O (configuration not stated)	> 4 mM (inactive)
CCC(C)C(=O)O[C@@H]1C[C@@]2(C)[C@H](c3ccoc3)OC(=O)CC23OC2(C)O[C@]14[C@]1(C)[C@@H](CC(=O)OC)C5(C)CC1(O)[C@](O)(C5OC(=O)C1(C)OC1C)[C@@H](OC(C)=O)[C@]34O2 (some centres not stated)	> 4 mM (inactive)
CC(=O)Nc1cccc(N2C(=O)CCC2=O)c1	> 4 mM (inactive)
[O-][n+]1cc(O)c(CN2CCOCC2)c2ccccc21	> 4 mM (inactive)
Cc1ccc2nc(NC(=O)CN3CCOCC3)sc2c1	> 4 mM (inactive)
O=C1c2cccnc2C(=O)N1Cc1ccco1	> 4 mM (inactive)

Compound	Kd
COCC(=O)Nc1cccc2ccccc12	> 4 mM (inactive)
O=C1N/C(=N\c2ccccn2)SC1Cc1ccccc1 (configuration not stated)	> 4 mM (inactive)
O=C(Nc1cccnc1)c1c(F)c(F)c(F)c(F)c1F	> 4 mM (inactive)
O=C(Nc1cccnc1)N1CCOCC1	> 4 mM (inactive)
COc1c2ccccc2nc2occc12	> 4 mM (inactive)
NC(CCC(=O)Nc1ccc([N+](=O)[O-])cc1)C(=O)O (configuration not stated)	> 4 mM (inactive)
Nc1ccncc1	> 4 mM (inactive)
O=[N+]([O-])c1cccc(-c2nnco2)c1	> 4 mM (inactive)
CN1CCOc2cc(C(=O)O)ccc21	> 4 mM (inactive)
CCc1ccc(/C=N/n2cnnc2)cc1	> 4 mM (inactive)
CC(C)C(C)/C=C/C(C)[C@H]1CCC2C3=CCC4CC(=O)CC[C@]4(C)C3CC[C@@]21C (some centres not stated)	> 4 mM (inactive)
COc1cc(C)nc(N(CCO)CCO)n1	> 4 mM (inactive)
Cc1ccc(NC(=O)C2CCCNC2=O)nc1 (configuration not stated)	> 4 mM (inactive)
CCSc1n[nH]c(=O)[nH]c1=O	> 4 mM (inactive)
O=C(Nn1cnnc1)c1cc2c(s1)CCCCC2	> 4 mM (inactive)
CC[C@@H]1[C@@H](O)N2C3C[C@H]1C1C(O)[C@]4(C[C@@H]12)c1ccccc1N(C)[C@@H]34 (some centres not stated)	> 4 mM (inactive)
c1cncc(Nc2nc(-c3ccncc3)cs2)c1	> 4 mM (inactive)
CSc1nnc2[nH]c(=O)cc(N)n12	> 4 mM (inactive)
Cc1cccc(-c2nnc(-c3ccc(N)cc3)o2)c1	> 4 mM (inactive)
